Results taken from patent US11524951B2, “2-(2,4,5-substituted-anilino)pyrimidine compounds” (AstraZeneca AB, priority 2011, dated 2022).

Assays:
Type in all cases: cell-based
L858R/T790M EGFR = molecular target: T1, L858R/T790M EGFR (Homo sapiens, UniProt P00533, L858R/T790M); experiment: L858R/T790M EGFR (double mutant) cellular phosphorylation assay; settings: NCI-H1975 human lung cells; endogenous p-EGFR in cell lysates by ELISA; 2 h with compound
T1 construct: Assays to measure cellular phosphorylation of endogenous p-EGFR in cell lysates; endogenous in cells; host or cells: NCI-H1975 (human lung cell line)

Wild-type EGFR = molecular target: T2, Wild-type EGFR (Homo sapiens, UniProt P00533); experiment: Wild-type EGFR cellular phosphorylation assay; settings: LoVo human colon cells; endogenous p-EGFR in cell lysates by ELISA; 2 h with compound, then stimulated 100 ng/ml for 10 minutes; read-out: Assay 3 (IC50)
T2 construct: Assays to measure cellular phosphorylation of endogenous p-EGFR in cell lysates; endogenous in cells; host or cells: LoVo (human colon cell line)

Exon19 deletion EGFR = molecular target: T3, Exon19 deletion EGFR (Homo sapiens, UniProt P00533, DEL746-750); experiment: Exon19 deletion EGFR (activating single mutant) cellular phosphorylation assay; settings: PC9 human lung cells (Exon 19 deletion EGFR); endogenous p-EGFR in cell lysates by ELISA; 2 h with compound; read-out: Assay 1 (IC50)
T3 construct: Assays to measure cellular phosphorylation of endogenous p-EGFR in cell lysates; endogenous in cells; host or cells: PC9 (human lung cell line)
T3 sequence (P00533 with tags, fused parts or gaps DEL746-750): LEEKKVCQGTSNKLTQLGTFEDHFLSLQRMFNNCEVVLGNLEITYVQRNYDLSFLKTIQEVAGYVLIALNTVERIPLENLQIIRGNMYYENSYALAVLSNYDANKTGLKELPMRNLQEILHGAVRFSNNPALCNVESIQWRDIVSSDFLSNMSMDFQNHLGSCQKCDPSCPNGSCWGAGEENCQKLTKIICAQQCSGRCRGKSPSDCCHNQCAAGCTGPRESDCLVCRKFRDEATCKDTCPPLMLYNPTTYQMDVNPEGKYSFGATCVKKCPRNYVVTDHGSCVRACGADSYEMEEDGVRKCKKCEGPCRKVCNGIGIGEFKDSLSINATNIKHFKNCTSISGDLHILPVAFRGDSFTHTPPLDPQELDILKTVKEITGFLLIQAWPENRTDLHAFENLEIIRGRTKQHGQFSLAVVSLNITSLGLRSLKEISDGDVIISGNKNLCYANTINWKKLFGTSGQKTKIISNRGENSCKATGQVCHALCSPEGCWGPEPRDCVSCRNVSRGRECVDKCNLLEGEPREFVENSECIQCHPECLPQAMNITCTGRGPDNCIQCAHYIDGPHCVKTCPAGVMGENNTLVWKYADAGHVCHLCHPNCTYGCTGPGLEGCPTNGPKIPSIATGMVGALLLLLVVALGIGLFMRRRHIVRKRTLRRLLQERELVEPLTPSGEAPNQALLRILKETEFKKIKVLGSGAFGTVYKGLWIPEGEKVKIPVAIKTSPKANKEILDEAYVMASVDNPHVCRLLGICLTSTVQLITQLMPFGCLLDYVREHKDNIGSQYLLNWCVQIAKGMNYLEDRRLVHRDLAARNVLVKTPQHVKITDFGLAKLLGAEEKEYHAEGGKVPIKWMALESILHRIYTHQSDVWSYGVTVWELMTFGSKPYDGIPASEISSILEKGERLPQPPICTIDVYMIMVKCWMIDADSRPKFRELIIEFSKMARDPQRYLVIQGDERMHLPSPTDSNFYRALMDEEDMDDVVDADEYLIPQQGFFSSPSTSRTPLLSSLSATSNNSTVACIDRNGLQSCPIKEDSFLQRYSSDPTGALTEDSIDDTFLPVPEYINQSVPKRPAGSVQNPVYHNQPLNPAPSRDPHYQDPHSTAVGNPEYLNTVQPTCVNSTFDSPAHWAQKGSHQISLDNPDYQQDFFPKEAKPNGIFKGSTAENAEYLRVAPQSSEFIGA

T2 sequence (P00533 25-1210): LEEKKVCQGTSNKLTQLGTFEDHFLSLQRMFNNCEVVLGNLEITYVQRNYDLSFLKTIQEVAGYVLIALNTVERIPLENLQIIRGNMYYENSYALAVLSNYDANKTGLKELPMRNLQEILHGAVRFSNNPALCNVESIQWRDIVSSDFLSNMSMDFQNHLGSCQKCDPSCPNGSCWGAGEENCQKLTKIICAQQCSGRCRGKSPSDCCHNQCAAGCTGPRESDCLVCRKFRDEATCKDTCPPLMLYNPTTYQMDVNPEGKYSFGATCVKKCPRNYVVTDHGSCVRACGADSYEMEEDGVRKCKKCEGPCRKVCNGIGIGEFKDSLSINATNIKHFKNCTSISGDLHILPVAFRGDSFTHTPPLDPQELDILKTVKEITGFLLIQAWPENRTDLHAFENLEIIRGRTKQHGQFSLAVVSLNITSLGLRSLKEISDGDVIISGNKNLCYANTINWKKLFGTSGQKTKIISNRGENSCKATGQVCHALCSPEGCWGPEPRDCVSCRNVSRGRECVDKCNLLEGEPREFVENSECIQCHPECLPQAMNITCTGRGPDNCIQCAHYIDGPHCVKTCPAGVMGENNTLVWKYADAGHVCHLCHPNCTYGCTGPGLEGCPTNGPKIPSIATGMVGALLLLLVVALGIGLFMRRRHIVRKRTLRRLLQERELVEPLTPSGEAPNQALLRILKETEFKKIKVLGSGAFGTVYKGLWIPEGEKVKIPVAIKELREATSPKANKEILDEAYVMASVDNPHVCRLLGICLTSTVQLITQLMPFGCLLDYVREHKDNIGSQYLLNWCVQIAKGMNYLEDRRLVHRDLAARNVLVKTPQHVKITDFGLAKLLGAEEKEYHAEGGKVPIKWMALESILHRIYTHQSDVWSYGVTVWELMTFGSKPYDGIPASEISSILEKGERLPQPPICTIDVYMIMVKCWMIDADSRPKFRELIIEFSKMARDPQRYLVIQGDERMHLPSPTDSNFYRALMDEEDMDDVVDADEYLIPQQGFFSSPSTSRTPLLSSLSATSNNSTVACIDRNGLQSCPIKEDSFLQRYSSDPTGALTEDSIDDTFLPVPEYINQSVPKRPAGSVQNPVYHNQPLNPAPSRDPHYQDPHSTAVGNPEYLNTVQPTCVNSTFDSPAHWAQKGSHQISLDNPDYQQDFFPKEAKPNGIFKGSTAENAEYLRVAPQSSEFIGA
T1 sequence (P00533 25-1210 T790M/L858R): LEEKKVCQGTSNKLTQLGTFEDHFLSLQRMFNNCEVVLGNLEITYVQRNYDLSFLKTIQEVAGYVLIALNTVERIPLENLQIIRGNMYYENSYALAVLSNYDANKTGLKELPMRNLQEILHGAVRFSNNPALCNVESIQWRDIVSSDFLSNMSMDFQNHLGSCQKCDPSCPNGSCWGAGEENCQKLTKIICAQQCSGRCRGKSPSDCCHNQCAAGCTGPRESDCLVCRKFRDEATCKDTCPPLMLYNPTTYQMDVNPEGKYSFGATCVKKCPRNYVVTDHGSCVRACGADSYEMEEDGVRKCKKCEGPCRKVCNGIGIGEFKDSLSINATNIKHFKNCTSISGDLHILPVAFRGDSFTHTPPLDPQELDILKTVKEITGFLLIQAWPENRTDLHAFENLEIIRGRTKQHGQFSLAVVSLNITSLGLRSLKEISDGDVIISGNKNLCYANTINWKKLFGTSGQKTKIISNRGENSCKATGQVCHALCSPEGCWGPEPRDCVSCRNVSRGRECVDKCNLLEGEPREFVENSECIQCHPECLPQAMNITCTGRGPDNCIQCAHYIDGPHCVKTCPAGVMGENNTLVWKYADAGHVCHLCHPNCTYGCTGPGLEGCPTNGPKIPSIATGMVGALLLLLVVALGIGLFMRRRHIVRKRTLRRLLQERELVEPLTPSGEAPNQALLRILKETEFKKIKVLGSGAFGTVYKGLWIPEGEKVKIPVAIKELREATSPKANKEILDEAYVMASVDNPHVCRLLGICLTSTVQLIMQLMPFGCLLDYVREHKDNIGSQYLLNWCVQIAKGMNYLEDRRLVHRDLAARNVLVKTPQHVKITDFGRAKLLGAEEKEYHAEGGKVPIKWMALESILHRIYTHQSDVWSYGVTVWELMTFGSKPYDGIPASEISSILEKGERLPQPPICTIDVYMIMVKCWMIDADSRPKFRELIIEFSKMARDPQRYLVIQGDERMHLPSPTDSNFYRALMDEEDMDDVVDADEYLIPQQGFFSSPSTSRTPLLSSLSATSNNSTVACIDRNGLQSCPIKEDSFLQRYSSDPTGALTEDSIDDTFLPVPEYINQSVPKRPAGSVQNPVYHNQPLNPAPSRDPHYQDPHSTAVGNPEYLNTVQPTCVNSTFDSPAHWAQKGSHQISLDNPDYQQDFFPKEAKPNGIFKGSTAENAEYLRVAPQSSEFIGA

| IC50 (L858R/T790M EGFR) | IC50 (Wild-type EGFR) | IC50 (Exon19 deletion EGFR) | Compound |
| --- | --- | --- | --- |
| 119 nM | 15400 nM | 194 nM | C=CC(=O)Nc1cc(Nc2nccc(-c3cnn4c3CCCC4)n2)c(OC)cc1N1CC2(CCCN2C)C1 [Example 47, N-(4-Methoxy-2-{8-methyl-2,8-diazaspiro[3.4]octan-2-yl}-5-{[4-(4,5,6,7-tetrahydropyrazolo[1,5-a]pyridin-3-yl)pyrimidin-2-yl]amino}phenyl)prop-2-enamide] |
| 1.93 nM | 58.3 nM | 2.29 nM | C=CC(=O)Nc1cc(Nc2ncc(Cl)c(-c3cn(C)c4ccccc34)n2)c(OC)cc1N(C)CCN(C)C [Example 26, N-(5-{[5-Chloro-4-(1-methylindol-3-yl)pyrimidin-2-yl]amino}-2-{2-dimethylaminoethyl-methylamino}-4-methoxyphenyl)prop-2-enamide] |
